Publication PMC4826192 (Oncotarget, 2015)

System: MPNST (malignant peripheral nerve sheath tumor) cells
Assay: Cell viability assay (Dojindo CCK-8)
Conditions: 72 hours

SMILES	anti-proliferative effect, comparison of TKIs (500 nmol/L)	inhibition of MPNST cell proliferation, pazopanib versus MGCD516
Cc1ccc(NC(=O)c2ccc(CN3CCN(C)CC3)cc2)cc1Nc1nccc(-c2cccnc2)n1 [imatinib]	anti-proliferative effect similar to MGCD516	
Cc1ccc(Nc2nccc(N(C)c3ccc4c(C)n(C)nc4c3)n2)cc1S(N)(=O)=O [pazopanib]		similar
